According to patent publication US20210353593A1 (Chinook Therapeutics, Inc., priority 2019, published 2021):

Tested on: hallmark gene sets in kidney tissue of g-ddY mice
Assay: Gene Set Enrichment Analysis (GSEA) of hallmark gene sets, g-ddY mouse kidney RNA-seq
Type: in vivo

In the case of `CCCCN(CCCC)C(=O)CN1C[C@H](c2ccc3c(c2)OCO3)[C@@H](C(=O)O)[C@@H]1c1ccc(OC)cc1` [Atrasentan, (2R,3R,4S)-4-(1,3-benzodioxol-5-yl)-1-[2-(dibutylamino)-2-oxoethyl]-2-(4-methoxyphenyl)pyrrolidine-3-carboxylic acid], the “HALLMARK_INTERFERON_ALPHA_RESPONSE NES” value (20 mg/kg/day vs. control) is reported as −2.44, the “HALLMARK_INTERFERON_GAMMA_RESPONSE NES” value (20 mg/kg/day vs. control) is reported as −2.88 and the “HALLMARK_KRAS_SIGNALING_DN NES” value (20 mg/kg/day vs. control) is reported as 1.32. The “HALLMARK_KRAS_SIGNALING_UP NES” value (20 mg/kg/day vs. control) was −2.65, the “HALLMARK_M ITOTIC_SPINDLE NES” value (20 mg/kg/day vs. control) was −1.79 and the “HALLMARK_MTORC1_SIGNALING NES” value (20 mg/kg/day vs. control) was 1.23. The “HALLMARK_MYC_TARGETS_V1 NES” value (20 mg/kg/day vs. control) was −0.81, the “HALLMARK_MYC_TARGETS_V2 NES” value (20 mg/kg/day vs. control) was 0.76 and the “HALLMARK_MYOGENESIS NES” value (20 mg/kg/day vs. control) was −1.60. For the same compound, the “HALLMARK_NOTCH_SIGNALING NES” value (20 mg/kg/day vs. control) was 0.69, the “HALLMARK_OXIDATIVE_PHOSPHORYLATION NES” value (20 mg/kg/day vs. control) was 3.38 and the “HALLMARK_P53_PATHWAY NES” value (20 mg/kg/day vs. control) was −1.3. For the same compound, the “HALLMARK_PANCREAS_BETA_CELLS NES” value (20 mg/kg/day vs. control) was 0.98, the “HALLMARK_PEROXISOME NES” value (20 mg/kg/day vs. control) was 1.88 and the “HALLMARK_PI3K_AKT_MTOR SIGNALING NES” value (20 mg/kg/day vs. control) was −1.24. The “HALLMARK_PROTEIN_SECRETION NES” value (20 mg/kg/day vs. control) was 1.08, the “HALLMARK_REACTIVE_OXYGEN_SPECIES_PATHWAY NES” value (20 mg/kg/day vs. control) was 1.61 and the “HALLMARK_SPERMATOGENESIS NES” value (20 mg/kg/day vs. control) was 1.17. The “HALLMARK_TGF_BETA_SIGNALING NES” value (20 mg/kg/day vs. control) was −1.96, the “HALLMARK_TNFA_SIGNALING_VIA_NFKB NES” value (20 mg/kg/day vs. control) was −3.06 and the “HALLMARK_UNFOLDED_PROTEIN_RESPONSE NES” value (20 mg/kg/day vs. control) was −0.64. The “HALLMARK_UV_RESPONSE_DN NES” value (20 mg/kg/day vs. control) was −2.36, the “HALLMARK_UV_RESPONSE_UP NES” value (20 mg/kg/day vs. control) was 1.15 and the “HALLMARK_WNT_BETA_CATENIN_SIGNALING NES” value (20 mg/kg/day vs. control) was −1.57. For the same compound, the “HALLMARK_XENOBIOTIC_METABOLISM NES” value (20 mg/kg/day vs. control) was 2.16, the “cell proliferation associated signaling (mitotic spindle and G2M checkpoint)” value (30 mg/kg/day) was “reduced” and the inflammatory response signaling (30 mg/kg/day) was “reduced”. For the same compound, the “HALLMARK_ADIPOGENESIS NES” value (30 mg/kg/day vs. control) was 2.64, the “HALLMARK_ALLOGRAFT_REJECTION NES” value (30 mg/kg/day vs. control) was −2.12 and the “HALLMARK_ANDROGEN_RESPONSE NES” value (30 mg/kg/day vs. control) was 0.92. The “HALLMARK_ANGIOGENESIS NES” value (30 mg/kg/day vs. control) was −1.86, the “HALLMARK_APICAL_JUNCTION NES” value (30 mg/kg/day vs. control) was −2.00 and the “HALLMARK_APICAL_SURFACE NES” value (30 mg/kg/day vs. control) was −1.65. For the same compound, the “HALLMARK_APOPTOSIS NES” value (30 mg/kg/day vs. control) was −1.52, the “HALLMARK_BILE_ACID_METABOLISM NES” value (30 mg/kg/day vs. control) was 2.40 and the “HALLMARK_CHOLESTEROL_HOMEOSTASIS NES” value (30 mg/kg/day vs. control) was 1.14. The “HALLMARK_COAGULATION NES” value (30 mg/kg/day vs. control) was −1.56, the “HALLMARK_COMPLEMENT NES” value (30 mg/kg/day vs. control) was −1.56 and the “HALLMARK_DNA_REPAIR NES” value (30 mg/kg/day vs. control) was 1.52. The “HALLMARK_E2F_TARGETS NES” value (30 mg/kg/day vs. control) was −1.46, the “HALLMARK_EPITHELIAL_MESENCHYMAL_TRANSITION NES” value (30 mg/kg/day vs. control) was −2.60 and the “HALLMARK_ESTROGEN_RESPONSE_EARLY NES” value (30 mg/kg/day vs. control) was −1.22. For the same compound, the “HALLMARK_ESTROGEN_RESPONSE_LATE NES” value (30 mg/kg/day vs. control) was 1.16, the “HALLMARK_FATTY_ACID_METABOLISM NES” value (30 mg/kg/day vs. control) was 2.90 and the “HALLMARK_G2M_CHECKPOINT NES” value (30 mg/kg/day vs. control) was −1.92. For the same compound, the “HALLMARK_GLYCOLYSIS NES” value (30 mg/kg/day vs. control) was 1.96, the “HALLMARK_HEDGEHOG_SIGNALING NES” value (30 mg/kg/day vs. control) was −1.94 and the “HALLMARK_HEME_METABOLISM NES” value (30 mg/kg/day vs. control) was 1.99. For the same compound, the “HALLMARK_HYPOXIA NES” value (30 mg/kg/day vs. control) was −1.18, the “HALLMARK_IL2_STAT5_SIGNALING NES” value (30 mg/kg/day vs. control) was −1.56 and the “HALLMARK_IL6_JAK_STAT3_SIGNALING NES” value (30 mg/kg/day vs. control) was −2.33. For the same compound, the “HALLMARK_INFLAMMATORY_RESPONSE NES” value (30 mg/kg/day vs. control) was −2.40, the “HALLMARK_INTERFERON_ALPHA_RESPONSE NES” value (30 mg/kg/day vs. control) was −1.80 and the “HALLMARK_INTERFERON_GAMMA_RESPONSE NES” value (30 mg/kg/day vs. control) was −2.26. The “HALLMARK_KRAS_SIGNALING_DN NES” value (30 mg/kg/day vs. control) was −1.12, the “HALLMARK_KRAS_SIGNALING_UP NES” value (30 mg/kg/day vs. control) was −2.31 and the “HALLMARK_M ITOTIC_SPINDLE NES” value (30 mg/kg/day vs. control) was −2.02. The “HALLMARK_MTORC1_SIGNALING NES” value (30 mg/kg/day vs. control) was 1.81, the “HALLMARK_MYC_TARGETS_V1 NES” value (30 mg/kg/day vs. control) was 1.26 and the “HALLMARK_MYC_TARGETS_V2 NES” value (30 mg/kg/day vs. control) was 0.92. For the same compound, the “HALLMARK_MYOGENESIS NES” value (30 mg/kg/day vs. control) was −1.30, the “HALLMARK_NOTCH_SIGNALING NES” value (30 mg/kg/day vs. control) was −1.15 and the “HALLMARK_OXIDATIVE_PHOSPHORYLATION NES” value (30 mg/kg/day vs. control) was 3.69. For the same compound, the “HALLMARK_P53_PATHWAY NES” value (30 mg/kg/day vs. control) was 1.10, the “HALLMARK_PANCREAS_BETA_CELLS NES” value (30 mg/kg/day vs. control) was 1.07 and the “HALLMARK_PEROXISOME NES” value (30 mg/kg/day vs. control) was 2.39. The “HALLMARK_PI3K_AKT_MTOR SIGNALING NES” value (30 mg/kg/day vs. control) was 0.83, the “HALLMARK_PROTEIN_SECRETION NES” value (30 mg/kg/day vs. control) was 1.73 and the “HALLMARK_REACTIVE_OXYGEN_SPECIES_PATHWAY NES” value (30 mg/kg/day vs. control) was 1.98. For the same compound, the “HALLMARK_SPERMATOGENESIS NES” value (30 mg/kg/day vs. control) was 1.21, the “HALLMARK_TGF_BETA_SIGNALING NES” value (30 mg/kg/day vs. control) was −1.55 and the “HALLMARK_TNFA_SIGNALING_VIA_NFKB NES” value (30 mg/kg/day vs. control) was −2.63. For the same compound, the “HALLMARK_UNFOLDED_PROTEIN_RESPONSE NES” value (30 mg/kg/day vs. control) was 0.78, the “HALLMARK_UV_RESPONSE_DN NES” value (30 mg/kg/day vs. control) was −2.39 and the “HALLMARK_UV_RESPONSE_UP NES” value (30 mg/kg/day vs. control) was 1.63. For the same compound, the “HALLMARK_WNT_BETA_CATENIN_SIGNALING NES” value (30 mg/kg/day vs. control) was −1.63 and the “HALLMARK_XENOBIOTIC_METABOLISM NES” value (30 mg/kg/day vs. control) was 2.38.
